Data taken from article PMC9889269, “Synthetic anaplerotic modules for the direct synthesis of complex molecules from CO2” (Nature Chemical Biology, 2022).

Target: T1, Aat (acetyl-CoA acetyltransferase) (Cupriavidus necator, UniProt P14611)
T1 construct: gene phaA; recombinant from E. coli BL21(DE3), Ni-NTA purified, desalted
T1 sequence (P14611 1-393): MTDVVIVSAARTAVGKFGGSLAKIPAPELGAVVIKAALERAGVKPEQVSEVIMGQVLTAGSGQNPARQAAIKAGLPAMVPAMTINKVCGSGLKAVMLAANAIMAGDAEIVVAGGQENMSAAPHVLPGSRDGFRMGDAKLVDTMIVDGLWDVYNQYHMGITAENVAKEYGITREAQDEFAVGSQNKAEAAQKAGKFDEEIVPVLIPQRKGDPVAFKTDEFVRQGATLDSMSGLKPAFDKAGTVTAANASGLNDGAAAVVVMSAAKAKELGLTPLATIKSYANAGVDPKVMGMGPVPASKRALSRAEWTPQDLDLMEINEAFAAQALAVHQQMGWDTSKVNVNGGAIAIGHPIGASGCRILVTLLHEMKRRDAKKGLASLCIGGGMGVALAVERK
Assay: LC-MS of condensation products, with Aar and Bbd
Assay type: biochemical
Settings: acetyl-CoA and propionyl-CoA together

SMILES: CCC(=O)SCCNC(=O)CCNC(=O)[C@H](O)C(C)(C)COP(=O)(O)OP(=O)(O)OC[C@H]1O[C@@H](n2cnc3c(N)ncnc32)[C@H](O)[C@@H]1OP(=O)(O)O [propionyl-CoA]
- LC-MS of condensation products, with Aar and Bbd (condensed with acetyl-CoA, not with itself): All products for acetyl- and propionyl-CoA combinations were detectable

SMILES: CC(=O)SCCNC(=O)CCNC(=O)[C@H](O)C(C)(C)COP(=O)(O)OP(=O)(O)OC[C@H]1O[C@@H](n2cnc3c(N)ncnc32)[C@H](O)[C@@H]1OP(=O)(O)O [acetyl-CoA]
- LC-MS of condensation products, with Aar and Bbd: Promiscuity of Aat assayed with acetyl-CoA and propionyl-CoA
